# Data published in patent US20080113347A1, “Method for the in Vitro Diagnosis and Prognosis of Demyelinating Diseases, and for the Development of Drugs Against Demyelinating Diseases” (priority 2003, published 2008).
# System: dusp6 gene expression
# Assay: Differential analysis of dusp6 gene expression in oligodendrocyte cultures with Rat Genome U34 DNA arrays
# Assay type: cell-based
# Set-up: key to Change: Increases (I); Decreases (D); undergoes No Change (NC); Marginally Increases (MI); Marginally Decreases (MD); key to Detection: Present (P); Absent (A); Marginal (M)
# Conditions: for SLR (vs control): Signal Log Ratio (log2); for Signal (dusp6, probe set U42627_at): arrays scaled to total intensity 100; for Change: vs control
# Excerpt: Microarrays. The microarrays GeneChip Test 3 (Affymetrix, Santa Clara) were used which allow testing the quality of the RNA prior to the expression analysis with GeneChip Rat Genome U34 set (Affymetrix, Santa Clara), representing 3322 complete gene sequences. The dusp6 gene is represented in the microarray by probe set U42627_at of Affymetrix, which are sense oligonucleotides of 25 nucleotides in length designed on the basis of GeneBank U42627 sequence (Table 1).
# Samples. The samples studied corresponded to primary oligodendrocyte cultures obtained from the optic nerve of 12-day old rats. To prevent inter-individual variations, each culture corresponded to a 10-animal cell pool. Treatments were made in duplicate with 10 μM AMPA (α-amino-3-hydroxy-5-methyl-4-isoxazolepropionic acid) or 3 μM kainate. The duration of treatments was 2, 10 and 15 minutes, the cells being collected immediately after treatment in the first two cases and 1 hour after the 15-minute treatment. Treatment for 10 and 15 minutes with AMPA and with kainate causes apoptosis, whereas 2-minute treatment was considered sublethal due to scarce treatment duration. After treatments, the cells were collected in TRIzol® Reagent (Life Technologies) and were stored at −80° C. until total RNA extraction.
# The analysis was carried out with total RNA from oligodendrocyte cultures. Each sample corresponded to the mixture of total RNAs from two cultures and were called the following: control: untreated cultured oligodendrocytes ampa 2: oligodendrocytes treated for 2 minutes with 10 μM AMPA and collected after treatment ampa 10: oligodendrocytes treated for 10 minutes with 10 μM AMPA collected after treatment ampa 15: oligodendrocytes treated for 15 minutes with 10 μM AMPA and collected 60 minutes later Kainate 2: oligodendrocytes treated for 2 minutes with 3 μM kainate and collected after treatment Kainate 10: oligodendrocytes treated for 10 minutes with 3 μM kainate and collected after treatment Kainate 15: oligodendrocytes treated for 15 minutes with 3 μM kainate and collected 60 minutes later The total RNA of each one of the cultures was obtained by homogenizing the cells in TRIzol® Reagent (Life Technologies) following the supplier's recommendations. The resulting total RNA was cleaned with the RNeasy Mini kit (QIAGEN) (Chomczynski P. et al., Anal. Biochem., 1987, 162: 156; Chomczynski P., Biotechniques, 1993, 15: 532). 2 μg from each total RNA preparation were used as starting material for the synthesis of biotinylated cRNA with the MessageAmp™ aRNA kit (Ambion).
# 15 μg of each biotinylated cRNA were fragmented at 94° C. for 35 minutes in a buffer solution containing 40 mM Tris-Acetate (pH 8.1), 100 mM KOAc and 30 mM MgOAc. The fragmented cRNA was mixed with hybridization buffer (10 mM MES, 1M NaCl, 20 mM EDTA, 0.01% Tween 20) and was heated at 99° C. for 5 minutes and subsequently at 45° C. for 5 minutes, to then be loaded into the Affymetrix array. The first array in which hybridization was carried out was Affymetrix Test 3. This array allows testing the quality of the RNA prior to expression analysis in the Affymetrix® GeneChip® Rat Genome U34 set (RG-U34).
# For hybridization, the arrays were incubated in a rotary oven at 45° C. for 16 hours and with a constant rotation of 60 rpm.
# Washing and staining of each array was carried out in the Affymetrix® Fluidics Station. A washing and staining program was used which included:
# The arrays were scanned at 560 nm using a confocal microscope using laser emission (Agilent GeneArray Scanner). Analysis of the intensity readings was carried out with Microarray Suite 5.0 software. To compare the arrays, the latter were scaled to a total intensity of 100.
# Differential analysis of the dusp6 gene expression in the oligodendrocytes stimulated with regard to the control was carried out from the array comparison data obtained using the Affymetrix software. […]
# [1] = treated 2 minutes (10 μM AMPA or 3 μM kainate), collected after treatment
# [2] = treated 10 minutes (10 μM AMPA or 3 μM kainate), collected after treatment
# [3] = treated 15 minutes (10 μM AMPA or 3 μM kainate), collected 60 minutes later
compound,measurement,setting,value
"Cc1onc(O)c1CC(N)C(=O)O (stereo not drawn) [AMPA, α-amino-3-hydroxy-5-methyl-4-isoxazolepropionic acid]",SLR (vs control),[1],0.8
same,SLR (vs control),[2],1.2
same,SLR (vs control),[3],2.1
same,Ratio (=2^SLR),"fold change vs untreated control, treated 2 minutes (10 μM AMPA or 3 μM kainate), collected after treatment",1.7 fold
same,Detection,[1],P
same,"Signal (dusp6, probe set U42627_at)",[1],75.3
same,Detection,[2],P
same,"Signal (dusp6, probe set U42627_at)",[2],101.7
same,Detection,[3],P
same,"Signal (dusp6, probe set U42627_at)",[3],149.7
same,Change,[1],I
same,Change,[2],I
same,Change,[3],I
